Values joined by “and” are separate entries in the source; they are usually repeats but may differ in a detail not shown here. Equal entries are not always repeated. “Also recorded” adds a separate entry of the source.
What was measured:
[1] = Phase I clinical trial: plasma pharmacokinetics; assay type: in vivo, human
Experimental: A cycle consists of twice-daily oral administration of the compound for 4 weeks. Cycles were repeated every 4 weeks (28 days) until progression of disease, unacceptable toxicity, or another discontinuation criterion is met. The dose escalation trial was conducted as open label and multicenter trial. A modified Simon accelerated titration scheme was used for dose escalation.
The primary objective of the trial was to determine the safety, tolerability, and recommended phase II dose (RP2D). The secondary objectives of the trial were to determine the pharmacokinetic profile of the compound, pharmacodynamics of the compound, and preliminary antitumor activity of the compound.

[2] = system: FaDu human head and neck cancer; experiment: Subcutaneous FaDu human head and neck cancer xenograft in immunosuppressed mice; assay type: in vivo
Experimental: In the studies shown in FIG. 8, immunosuppressed mice with established subcutaneous FaDu human head and neck cancer were given indicated amount of hand grounded Compound 1 with Crystal Form 1, or vehicle control orally (po). Compound 1 was formulated in […]™. All regimens were administered daily (qd). Tumor sizes were evaluated periodically during treatment.
In the study shown in FIG. 9, immunosuppressed mice with established subcutaneous FaDu human head and neck cancer were given 100 mg/kg of micronized Compound 1 produced with the synthetic process described in FIGS. 5A and 5B (first crop), or vehicle control orally (po). Compound 1 was formulated in […]™. All regimens were administered daily (qd). Tumor sizes were evaluated periodically during treatment. Form 2 has been successfully manufactured by a current good manufacturing practice (cGMP) process and received approval from the FDA and Health Canada to be used in clinical trials.
Form 3 can only be generated from Form 1 using a specially designed slurry process described herein. […] In the study shown in FIG. 10, immunosuppressed mice with established subcutaneous FaDu human head and neck cancer were given 200 mg/kg of Compound 1 with hand grounded Crystal Form 1 or Form 3, or vehicle control orally (po). Compound 1 was formulated in gelucire. All regimens were administered daily (qd). Tumor sizes were evaluated periodically during treatment. This polymorph has been successfully manufactured by a cGMP process and received approval from FDA and Health Canada to be used in clinical trials.
The anti-tumor activity of particles of Compound 1 with different particle size ranges is illustrated in FIG. 15, and the pharmacokinetic data for particles of Compound 1 with different particle size ranges is illustrated in FIGS. 16-18. In the study shown in FIG. 15, immunosuppressed mice with established subcutaneous FaDu human head and neck cancer were given indicated amount of Compound 1 with indicated particle size, or vehicle control orally (po). All regimens were administered daily (qd). Tumor size was evaluated periodically.
In an experiment, a formulation of Compound 1 particles sieved to 160 micron was tested in the model of immunosuppressed mice with established subcutaneous xenograft FaDu human head and neck cancer. The pharmaceutical composition was formulated as 80 mg/ml in 9% Gelucire, 20% Vitamin E TPGS (Table 3). […] All regimens were administered daily (qd).
In an experiment, Compound 1 crystals were milled to a median particle size of about 20 micron. […] All regimens were administered daily (qd).
FaDu human head and neck cancer cells were inoculated subcutaneously into female athymic nude mice (6×10^6 cells/mouse) and allowed to form palpable tumors. When the tumors reached approximately 100 mm^3, the animals were treated orally (po) with Compound 1 at 100 mg/kg or vehicle control daily. Compound 1 was formulated at 10 mg/ml in 20% gelucire. Tumors and bodyweights were measured throughout treatment (FIG. 15).
(§1) Daily examinations into the health status of each animal were also conducted. Body weights were checked every three days. Food and water was supplied daily according to the animal husbandry procedures of the facility. Treatment producing >20% lethality and or >20% net body weight loss were considered toxic. Results are expressed as mean tumor volume (mm^3)±SE. P Values <0.05 are considered to be statistically relevant.
Male or female athymic nude mice 4-5 weeks (Charles River Laboratories, Wilmington, Mass.), were acclimated to the animal housing facility for at least 1 week before study initiation. […]

advanced solid tumors = experiment: Phase I clinical trial: tumor response (RECIST 1.1); assay type: in vivo, human
Excerpt: Of the 42 patients dosed, 24 were evaluable for tumor response as of Feb. 7, 2011; 16 (16/24 evaluable patients) achieved stable disease (8 to 75+ weeks).

[3] = Pharmacokinetics in mice of 2, 20, 150 micron particle size formulations; assay type: in vivo; conditions: particle size 125-150 micron vs 2 and 20 micron, 100 mg/kg oral, 20% Gelucire 44/14, 1% Tween 80
Experimental: In an experiment, micronized Compound 1 prepared in step 6 of Example 2 with a mean particle size of 2 micron, 20 microns, 150 microns were formulated as suspensions in 20% Gelucire 44/14 and 1% Tween 80 and administered orally to mice at 100 mg/kg. Each time point represents the average of 3 mice (FIG. 16).

[4] = Toxicity (body weight, deaths) in xenograft-bearing immunosuppressed mice; assay type: in vivo; conditions: for mice died during the treatment: about 90% pure
Experimental: All regimens were administered daily (qd). Body weights were evaluated periodically during treatment. Each point represents the mean±SEM of eight tumors. […] All regimens were administered daily (qd). Body weights were evaluated periodically during treatment. Each point represents the mean±SEM of eight tumors.
as §1

[5] = Concentration in patient urine; assay type: in vivo, human; conditions: patient 0001, 20 mg daily administration
advanced cancers = experiment: Progression free survival of patients; assay type: in vivo, human
Excerpt: FIG. 22 is a graph that illustrates the comparison of progression free survival of colorectal cancer patients treated with Compound 1. The progression free survival (PFS) of evaluable patients with colorectal cancer treated with Compound 1 was compared against historical PFS data for best supportive care in patients with colorectal cancer.
FIG. 23 is a graph that illustrates the comparison of progression free survival (PFS) versus pharmacokinetic exposure. The PFS of evaluable patients receiving Compound 1 was compared against Compound 1 exposure above or below 1.6 uM for at least 4 hours.

[6] = Phase I clinical trial: safety and tolerability; assay type: in vivo, human
Excerpt: Grade 3 or greater events include: fatigue and diarrhea.

[7] = system: cancer cells and normal cells; conditions: literature reports (Hirai 1999; Takano 2009); cited from earlier work
[8] = system: cancer cells and normal cells; experiment: Exposure concentration/time and selective killing of cancer versus normal cells; assay type: cell-based
Experimental: The studies described herein discovered counter-intuitively that cancer cells and cancer stem cells requires much shorter exposure than normal cells to be killed by Compound 1. Normal cells can tolerate up to 24 hours of exposure to Compound 1. Furthermore, the studies here discovered that normal cells can recover after a short period of no-drug exposure, while cancer cells cannot recover once they are exposed to a certain concentration of the Compound 1 for at least 2 hours. Based on these studies, a special pharmacokinetic exposure [termed selective pharmacokinetic profile (SPP), or preferred pharmacokinetic profile (PPP), which is used interchangeably in this publication] was designed for Compound 1 using the data shown below in Table 14 for achieving selective antitumor activity in patients (FIG. 24).
The selective activity of Compound 1 in killing cancer cells and sparing normal cells is represented by the data in Table 14 and illustrated in FIG. 24.

[9] = crystal form used in clinical trials
[10] = particle size less than 5 micron

## CC(=O)c1cc2c(o1)C(=O)c1ccccc1C2=O [Crystal Form 2, 2-acetyl-4H, 9H-naphtho[2,3-b]furan-4,9-dione]
[1]; [9]
  pharmacokinetics in cancer patients: desirable pharmacokinetics
[2]; 100 mg/kg micronized (first crop, process of FIGS. 5A-5B) in GELUCIRE, po, qd
  anti-tumor activity: potent anti-tumor activity
Advanced solid tumors; [9]
  anti-tumor activity in cancer patients: strong signs of anti-tumor activity

## CC(=O)c1cc2c(o1)C(=O)c1ccccc1C2=O [Crystal Form 3, 2-acetyl-4H, 9H-naphtho[2,3-b]furan-4,9-dione]
[2]; 200 mg/kg hand grounded, in gelucire, po, qd
  antitumor activity: potent antitumor activities

## CC(=O)c1cc2c(o1)C(=O)c1ccccc1C2=O [Crystal Form 1, 2-acetyl-4H, 9H-naphtho[2,3-b]furan-4,9-dione]
[2]; hand grounded Crystal Form 1 in GELUCIRE, po, qd
  anti-tumor activity: limited anti-tumor activity; also recorded: low anti-tumor activity

## CC(=O)c1cc2c(o1)C(=O)c1ccccc1C2=O [Compound 1, 2-acetylnaphtho[2,3-b]furan-4,9-dione]
[3]
  plasma exposure: lower level of exposure
[4]; about 90% pure Compound 1, GELUCIRE, po, qd
  toxicity: Significant toxicity
[4]; mice with FaDu human head and neck cancer (first experiment)
  mice died during the treatment: 4
[4]; mice with MDA-231 human breast cancer (second experiment)
  mice died during the treatment: 3
[4]; higher purity (about 95% or greater), mice with FaDu or MDA-231 xenografts, po, qd
  tolerability: well-tolerated and showed no signs of toxicity
[1]; 320 mg/day dose level, at a concentration of at least 1.5 μM
  time plasma concentration was sustained: over 8 hours
[1]; human, in vivo, 20 mg
  clearance from the blood: rapidly cleared from the blood
[1]; human, in vivo, 320 mg
  AUC0-24: 29.79 µM·h
[1]; human, in vivo, 800 mg
  AUC0-24: 26.43 µM·h
[1]; human, in vivo, 1400 mg
  AUC0-24: 28.38 µM·h
[5]
  concentration of the compound in urine: high concentration
Advanced cancers; blood drug concentration above 1 uM, patients with diverse cancers
  progression free survival: increase in progression free survival
Advanced cancers; patients with advanced colorectal cancer refractory to chemotherapy
  progression free survival (PFS): Prolongation of progression free survival
Advanced cancers; patients with exposure above 1.6 uM for at least 4 hours
  progression free survival: improvement in progression free survival
[6]; dose escalated from 20 mg to 2000 mg/day
  maximum tolerated dose (MTD): not reached; also recorded: neither MTD nor RP2D has been reached
[6]; human, in vivo
  Urine Color Change, # of Events: 2
  Urine Color Change, % of Total: 2.5%
[6]; human, in vivo, 4 weeks
  Urine Color Change, # of Events: 0
[2]; median particle size about 20 micron, 200 mg/kg oral daily
  efficacy: weak or moderate efficacy
[2]; nanoparticles, D50 about 100 nanometers
  anti-tumor activity: reduction of anti-tumor activity
[2]; particle size greater than 20 micron
  efficacy: no or weak efficacy
[2]; [10]
  anti-tumor activity: potent anti-tumor activity
  toxicity: no observed toxicity
Advanced solid tumors; 20 mg QD
  antitumor activity in a colon cancer lesion in kidney: signs of potent antitumor activity
Advanced solid tumors; 24 evaluable patients with advanced refractory cancers
  evaluable patients showing no metastatic tumors: over 80%
Advanced solid tumors; patient 0001, 20 mg daily
  response of colon cancer metastatic lesion to kidney: complete regression
Advanced solid tumors; patient 0014, total daily dose 400 mg bid, Ovarian cancer
  Best Response, remark (CA 125): CA 125 normalization
Advanced solid tumors; patient 0015, total daily dose 400 mg bid, Colon adenocarcinoma
  Best Response, remark (CEA): CEA ? >30-50%
Advanced solid tumors; tumors refractory to chemotherapies
  evaluable patients showing SD/MR by RECIST 1.1: 16/24 and 16 out of 24
[7]
  toxicity to cancer cells versus normal cells: equally toxic to cancer cells and normal cells
[8]
  exposure time tolerated by normal cells: up to 24 hours
[8]; about or above 0.2 and 30 μM for about 4 hours up to about 24 hours
  selectivity of killing: selective killing of cancer cells and sparing of normal cells
